What was measured:
Test in all cases: MIC, growth inhibition in microtiter plates (TSB)
Type in all cases: cell-based
[1] = system: Xanthomonas arboricola pv. pruni CFBP5563; conditions: Xap, 25°C, 48 h, OD 600 nm, lowest concentration with no growth, given as interval of tested concentrations, three replicates, experiment repeated twice
In short: (§1)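 Bacteria were scraped from agar after 24 h at 25°C, or 48 h for X. fragariae, and suspended in sterile water at 10^8 CFU mL^-1. Each suspension was combined with peptide dilution in Trypticase Soy Broth and incubated 48 h at 25°C. Growth was followed by absorbance at 600 nm.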

[2] = system: Xanthomonas axonopodis pv. vesicatoria 2133–2; conditions: Xav, 25°C, 48 h, OD 600 nm, lowest concentration with no growth, given as interval of tested concentrations, three replicates, experiment repeated twice
In short: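 OD600 readout, hourly over 48 h at 25°C, 20 s shaking; TSB medium; inoculum from 10^8 CFU mL^-1 water suspension; triplicates, experiment run twice; MIC = lowest concentration showing no growth at endpoint.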

[3] = system: Xanthomonas fragariae Xf349-9A; conditions: Xf, 25°C, 48 h, OD 600 nm, lowest concentration with no growth, given as interval of tested concentrations, three replicates, experiment repeated twice
In short: as §1

[4] = system: Pseudomonas syringae pv. syringae EPS94; conditions: Pss, 25°C, 48 h, OD 600 nm, lowest concentration with no growth, given as interval of tested concentrations, three replicates, experiment repeated twice
In short: as §1

[5] = system: Erwinia amylovora PMV6076; conditions: Ea, 25°C, 48 h, OD 600 nm, lowest concentration with no growth, given as interval of tested concentrations, three replicates, experiment repeated twice
In short: as §1

[6] = system: Pseudomonas syringae pv. actinidiae Psa3700.1.1; conditions: Psa, 25°C, 48 h, OD 600 nm, lowest concentration with no growth, given as interval of tested concentrations, three replicates, experiment repeated twice
In short: as §1

## CCCCCC(=O)NCCCC[C@H](NC(=O)[C@H](CCCCN)NC(=O)[C@H](CCCCN)NC(=O)[C@H](Cc1ccccc1)NC(=O)[C@H](CC(C)C)NC(=O)[C@H](CCCCN)NC(=O)[C@H](CCCCN)NC(C)=O)C(=O)N[C@@H](CC(C)C)C(=O)N[C@@H](CCCCN)C(=O)N[C@@H](Cc1ccc(O)cc1)C(=O)N[C@@H](CC(C)C)C(N)=O [BP374, Ac-KKLFKKK(COC5H11)LKYL-NH2]
[1]
  MIC: 6.2 to 12.5 µM
[2]
  MIC: 6.2 to 12.5 µM
[3]
  MIC: 3.1 to 6.2 µM
[4]
  MIC: 6.2 to 12.5 µM
[5]
  MIC: 3.1 to 6.2 µM
[6]
  MIC: 3.1 to 6.2 µM

## CCCCCCCCCCCC(=O)NCCCC[C@H](NC(=O)[C@H](CC(C)C)NC(=O)[C@@H](NC(=O)[C@H](CCCCN)NC(=O)[C@H](CCCCN)NC(=O)[C@H](Cc1ccccc1)NC(=O)[C@H](CC(C)C)NC(=O)[C@H](CCCCN)NC(=O)[C@H](CCCCN)NC(C)=O)[C@@H](C)CC)C(=O)N[C@@H](Cc1ccc(O)cc1)C(=O)N[C@@H](CC(C)C)C(N)=O [BP400, Ac-KKLFKKILK(COC11H23)YL-NH2]
[1]
  MIC: 1.6 to 3.1 µM
[2]
  MIC: 1.6 to 3.1 µM
[3]
  MIC: 3.1 to 6.2 µM
[4]
  MIC: >25 µM
[5]
  MIC: >25 µM
[6]
  MIC: >25 µM

## CCCC(=O)NCCCC[C@H](NC(=O)[C@H](CCCCN)NC(C)=O)C(=O)N[C@@H](CC(C)C)C(=O)N[C@@H](Cc1ccccc1)C(=O)N[C@@H](CCCCN)C(=O)N[C@@H](CCCCN)C(=O)N[C@H](C(=O)N[C@@H](CC(C)C)C(=O)N[C@@H](CCCCN)C(=O)N[C@@H](Cc1ccc(O)cc1)C(=O)N[C@@H](CC(C)C)C(N)=O)[C@@H](C)CC [BP381, Ac-KK(COC3H7)LFKKILKYL-NH2]
[1]
  MIC: 3.1 to 6.2 µM
[2]
  MIC: 1.6 to 3.1 µM
[3]
  MIC: 1.6 to 3.1 µM
[4]
  MIC: 3.1 to 6.2 µM
[5]
  MIC: 3.1 to 6.2 µM
[6]
  MIC: 3.1 to 6.2 µM

## CC[C@H](C)[C@H](NC(=O)[C@H](CCCCN)NC(=O)[C@H](CCCCN)NC(=O)[C@H](Cc1ccccc1)NC(=O)[C@H](CC(C)C)NC(=O)[C@H](CCCCN)NC(=O)[C@@H](N)CCCCN)C(=O)N[C@@H](CC(C)C)C(=O)N[C@@H](CCCCN)C(=O)N[C@@H](Cc1ccc(O)cc1)C(=O)N[C@@H](CC(C)C)C(N)=O [BP100, H-Lys-Lys-Leu-Phe-Lys-Lys-Ile-Leu-Lys-Tyr-Leu-NH2]
[1]
  MIC: 1.6 to 3.1 µM
[2]
  MIC: 3.1 to 6.2 µM
[3]
  MIC: 3.1 to 6.2 µM
[4]
  MIC: 3.1 to 6.2 µM
[5]
  MIC: 3.1 to 6.2 µM
[6]
  MIC: 1.6 to 3.1 µM

## CCCC(=O)NCCCC[C@H](NC(=O)[C@@H](NC(=O)[C@H](CCCCN)NC(=O)[C@H](CCCCN)NC(=O)[C@H](Cc1ccccc1)NC(=O)[C@H](CC(C)C)NC(=O)[C@H](CCCCN)NC(=O)[C@H](CCCCN)NC(C)=O)[C@@H](C)CC)C(=O)N[C@@H](CCCCN)C(=O)N[C@@H](Cc1ccc(O)cc1)C(=O)N[C@@H](CC(C)C)C(N)=O [BP387, Ac-KKLFKKIK(COC3H7)KYL-NH2]
[1]
  MIC: 3.1 to 6.2 µM
[2]
  MIC: 1.6 to 3.1 µM
[3]
  MIC: 1.6 to 3.1 µM
[4]
  MIC: 3.1 to 6.2 µM
[5]
  MIC: 3.1 to 6.2 µM
[6]
  MIC: 3.1 to 6.2 µM

## CCCC(=O)NCCCC[C@H](NC(=O)[C@H](CCCCN)NC(=O)[C@H](Cc1ccccc1)NC(=O)[C@H](CC(C)C)NC(=O)[C@H](CCCCN)NC(=O)[C@H](CCCCN)NC(C)=O)C(=O)N[C@H](C(=O)N[C@@H](CC(C)C)C(=O)N[C@@H](CCCCN)C(=O)N[C@@H](Cc1ccc(O)cc1)C(=O)N[C@@H](CC(C)C)C(N)=O)[C@@H](C)CC [BP385, Ac-KKLFKK(COC3H7)ILKYL-NH2]
[1]
  MIC: 0.8 to 1.6 µM
[2]
  MIC: 0.8 to 1.6 µM
[3]
  MIC: 1.6 to 3.1 µM
[4]
  MIC: 6.2 to 12.5 µM
[5]
  MIC: 6.2 to 12.5 µM
[6]
  MIC: 6.2 to 12.5 µM

## CCCC(=O)NCCCC[C@H](NC(=O)[C@H](Cc1ccc(O)cc1)NC(=O)[C@H](CCCCN)NC(=O)[C@H](CC(C)C)NC(=O)[C@@H](NC(=O)[C@H](CCCCN)NC(=O)[C@H](CCCCN)NC(=O)[C@H](Cc1ccccc1)NC(=O)[C@H](CC(C)C)NC(=O)[C@H](CCCCN)NC(=O)[C@H](CCCCN)NC(C)=O)[C@@H](C)CC)C(N)=O [BP390, Ac-KKLFKKILKYK(COC3H7)-NH2]
[1]
  MIC: 6.2 to 12.5 µM
[2]
  MIC: 3.1 to 6.2 µM
[3]
  MIC: 3.1 to 6.2 µM
[4]
  MIC: 6.2 to 12.5 µM
[5]
  MIC: 3.1 to 6.2 µM
[6]
  MIC: 6.2 to 12.5 µM

## CCCCCC(=O)NCCCC[C@H](NC(=O)[C@H](Cc1ccc(O)cc1)NC(=O)[C@H](CCCCN)NC(=O)[C@H](CC(C)C)NC(=O)[C@@H](NC(=O)[C@H](CCCCN)NC(=O)[C@H](CCCCN)NC(=O)[C@H](Cc1ccccc1)NC(=O)[C@H](CC(C)C)NC(=O)[C@H](CCCCN)NC(=O)[C@H](CCCCN)NC(C)=O)[C@@H](C)CC)C(N)=O [BP378, Ac-KKLFKKILKYK(COC5H11)-NH2]
[1]
  MIC: 3.1 to 6.2 µM
[2]
  MIC: 3.1 to 6.2 µM
[3]
  MIC: 3.1 to 6.2 µM
[4]
  MIC: 6.2 to 12.5 µM
[5]
  MIC: 3.1 to 6.2 µM
[6]
  MIC: 3.1 to 6.2 µM

## CCCCCC(=O)NCCCC[C@H](NC(=O)[C@H](CC(C)C)NC(=O)[C@H](CCCCN)NC(=O)[C@H](CCCCN)NC(C)=O)C(=O)N[C@@H](CCCCN)C(=O)N[C@@H](CCCCN)C(=O)N[C@H](C(=O)N[C@@H](CC(C)C)C(=O)N[C@@H](CCCCN)C(=O)N[C@@H](Cc1ccc(O)cc1)C(=O)N[C@@H](CC(C)C)C(N)=O)[C@@H](C)CC [BP371, Ac-KKLK(COC5H11)KKILKYL-NH2]
[1]
  MIC: 3.1 to 6.2 µM
[2]
  MIC: 3.1 to 6.2 µM
[3]
  MIC: 3.1 to 6.2 µM
[4]
  MIC: 3.1 to 6.2 µM
[5]
  MIC: 3.1 to 6.2 µM
[6]
  MIC: 3.1 to 6.2 µM

## CCCC(=O)NCCCC[C@H](NC(=O)[C@H](CCCCN)NC(=O)[C@H](CC(C)C)NC(=O)[C@@H](NC(=O)[C@H](CCCCN)NC(=O)[C@H](CCCCN)NC(=O)[C@H](Cc1ccccc1)NC(=O)[C@H](CC(C)C)NC(=O)[C@H](CCCCN)NC(=O)[C@H](CCCCN)NC(C)=O)[C@@H](C)CC)C(=O)N[C@@H](CC(C)C)C(N)=O [BP389, Ac-KKLFKKILKK(COC3H7)L-NH2]
[1]
  MIC: 0.8 to 1.6 µM
[2]
  MIC: 0.8 to 1.6 µM
[3]
  MIC: 1.6 to 3.1 µM
[4]
  MIC: 6.2 to 12.5 µM
[5]
  MIC: 3.1 to 6.2 µM
[6]
  MIC: 3.1 to 6.2 µM

Source: paper PMC6063448, “Antimicrobial activity of linear lipopeptides derived from BP100 towards plant pathogens” (PLoS ONE, 2018)
